Reference: US20100056555A1, “METHOD OF TREATING RAS ASSOCIATED CANCER” (ENZON PHARMACEUTICALS, INC., priority 2008, published 2010)
“And” between values parts separate entries of the source, which are not always exact repeats. Equal entries are not always repeated. Where two headings read alike, the source gives them in different places.

Assays:
[1] = tested on: Calu-6 Human Lung Carcinoma cells; details: Calu-6 xenograft mice; for % T/C / % TGI: day 20; for Observed cures: day 57
[2] = tested on: MiaPaCA-2 pancreatic cells; assay: Kras mutant pancreatic cancer xenograft model (MiaPaCa-2); type: in vivo, human; details: MiaPaCa-2 xenograft mice
[3] = tested on: SW480 Human colorectal carcinoma cells; assay: SW480 human colorectal xenografts, Erbitux failed tumors; details: 40 mg/kg q2dx7 after C-225 challenge; SW480 xenograft mice; Day 22
[4] = tested on: SW480 Human colorectal carcinoma cells; assay: Kras mutant xenograft model of human colorectal cancer (SW480), single agent therapy; details: SW480 xenograft mice, Day 22
[5] = tested on: Calu-6 Human Lung Carcinoma cells; assay: Calu 6 Kras mutant xenografts that failed C225 (Erbitux) therapy; details: 40 mg/kg q2dx5 after C-225 challenge, Calu-6 xenograft mice

`CCc1c2c(nc3ccc(OC(=O)N4CCC(N5CCCCC5)CC4)cc13)-c1cc3c(c(=O)n1C2)COC(=O)[C@]3(O)CC` [CPT-11, Irinotecan] was tested, and the “% T/C” value ([1]; 40 mg/kg q2dx5) was 5%, the “% TGI” value ([1]; 40 mg/kg q2dx5) was 95% and the Observed cures ([1]; 40 mg/kg q2dx5) was 0/8. For the same compound, the “day by which animals relapsed” value ([1]; 40 mg/kg q2d×5) was 40 to 45 days, the “% T/C” value ([1]; 80 mg/kg qdx1) was 48% and the “% TGI” value ([1]; 80 mg/kg qdx1) was 52%. For the same compound, the Observed cures ([1]; 80 mg/kg qdx1) was 0/8, the “day by which all animals had to be sacrificed due to excessive tumor burden” value ([1]; 80 mg/kg qd×1) was 22 to 24 days and the TGI ([2]; CPT-11 at corresponding dose level as compound 9 (10 mg/kg, q2d×5)) was 20%. The TGI ([2]; multiple-dose at MTD of CPT-11 (40 mg/kg q2d×5)) was 47%, the “effect on tumor growth” value ([2]; single dose at the MTD (80 mg/kg qd×1)) was “no effect on tumor growth” and the “% TGI” value [3] was 65.38%. The “Percent Change in TV” value [3] was 219.31%, the “% TGI” value ([4]; 40 mg/kg q2dx5) was 65% and 64.76% and the “Percent Change in TV” value ([4]; 40 mg/kg q2dx5) was 163.62%. The “% T/C” value ([4]; 80 mg/kg qdx1) was 66.60%, the “% TGI” value ([4]; 80 mg/kg qdx1) was 47% and 46.53% and the “Percent Change in TV” value ([4]; 80 mg/kg qdx1) was 397.75%. The “% TGI” value ([5]; day 20) was 84% and the Observed cures ([5]; day 57) was 0/8.
